Results from patent US8980926B2, “2-aminoindole compounds and methods for the treatment of malaria” (Genzyme Corporation, priority 2009, dated 2015).

System: P. falciparum strain 3D7
Assay: In vitro potency against P. falciparum strain 3D7 (SYBR green/DAPI)
Type: cell-based
Conditions: Plasmodium falciparum, reductions in parasitemia, read-out: IC50 values

Question: For `CN(C)c1ccc(C2(O)C(N)=Nc3ccc(Cl)cc32)c2ccccc12` (centres unmarked) [Compound 68], which IC50 is on record?
Answer: 1 to 100 nM

Question: How did the IC50 turn out when `COc1cccc(C2(O)C(N)=Nc3ccc(Cl)cc32)c1OC` (centres unmarked) [Compound 73] was run?
Answer: 1 to 100 nM

Question: `CCOc1ccccc1C1(O)C(N)=Nc2ccc(Cl)cc21` (centres unmarked) [Compound 141] was tested. Which IC50 did it give?
Answer: 1 to 100 nM

Question: `CC(C)Oc1ccc(Cl)cc1C1(O)C(N)=Nc2ccc(Cl)cc21` (centres unmarked) [Compound 156] was tested. Which IC50 did it give?
Answer: 1 to 100 nM

Question: With `Cn1cc(F)c2c(C3(O)C(N)=Nc4ccc(Cl)cc43)cccc21` (centres unmarked) [Compound 226] as the compound, how does the IC50 read?
Answer: 100 to 500 nM

Question: For `NC1=Nc2ccc(Cl)cc2C1(O)c1nccs1` (centres unmarked) [Compound 60], which IC50 is on record?
Answer: 1000 to 5000 nM

Question: How did the IC50 turn out when `Cc1ccc2c(c1)C(O)(c1cccc3ccccc13)C(N)=N2` (centres unmarked) [Compound 257] was run?
Answer: 1 to 100 nM

Question: `CC(C)[C@@]1(O)C(N)=Nc2ccc(Cl)cc21` [Compound 247] was tested. Which IC50 did it give?
Answer: 100 to 500 nM

Question: `NC1=Nc2ccc(Cl)cc2C1(O)c1ccccc1N1CCOCC1` (centres unmarked) [Compound 119] was tested. Which IC50 did it give?
Answer: 1 to 100 nM

Question: `CCOc1cc(F)ccc1C1(O)C(N)=Nc2ccc(C)cc21` (centres unmarked) [Compound 251] was tested. Which IC50 did it give?
Answer: 1 to 100 nM

Question: For `Cc1ccc2c(c1)C(O)(c1cc(Cl)ccc1C1CC1)C(N)=N2` (centres unmarked) [Compound 262], which IC50 is on record?
Answer: 1 to 100 nM

Question: Which IC50 does the source give for `COc1ccccc1CC1(O)C(N)=Nc2ccc(Cl)cc21` (centres unmarked) [Compound 134] here?
Answer: 1 to 100 nM

Question: `NC1=Nc2ccc(Cl)cc2C1(O)c1ccccc1C1CC1` (centres unmarked) [Compound 205] was tested. Which IC50 did it give?
Answer: 1 to 100 nM

Question: For `COc1ccc2c(c1)C(O)(c1ccccc1)C(N)=N2` (centres unmarked) [Compound 42], which IC50 is on record?
Answer: 100 to 500 nM

Question: Which IC50 does the source give for `NC1=Nc2ccc(Cl)cc2C1(O)c1ccccc1Br` (centres unmarked) [Compound 118] here?
Answer: 100 to 500 nM

Question: With `NC1=Nc2ccc(CCCC3CCCCC3)cc2C1(O)c1ccccc1` (centres unmarked) [Compound 93] as the compound, how does the IC50 read?
Answer: 100 to 500 nM

Question: `NC1=Nc2ccccc2C1(O)c1ccc2ccccc2c1` (centres unmarked) [Compound 25] was tested. Which IC50 did it give?
Answer: 100 to 500 nM

Question: `CCOc1cc(C2(O)C(N)=Nc3ccc(Cl)cc32)c(Cl)cn1` (centres unmarked) [Compound 243] was tested. Which IC50 did it give?
Answer: 1 to 100 nM

Question: Which IC50 does the source give for `COc1ccccc1C1(O)C(N)=Nc2ccc(Cl)cc21` (centres unmarked) [Compound 70] here?
Answer: 1 to 100 nM

Question: How did the IC50 turn out when `COc1ccc(F)cc1C1(O)C(N)=Nc2ccc(Cl)cc21` (centres unmarked) [Compound 145] was run?
Answer: 1 to 100 nM

Question: How did the IC50 turn out when `NC1=Nc2ccc(Cl)cc2C1(O)C#Cc1ccccc1` (centres unmarked) [Compound 237] was run?
Answer: 1000 to 5000 nM

Question: How did the IC50 turn out when `Cc1cc(C)cc(C2(O)C(N)=Nc3ccc(Cl)cc32)c1` (centres unmarked) [Compound 112] was run?
Answer: 100 to 500 nM

Question: With `NC1=Nc2ccc(Cl)cc2C1(O)c1ccccc1-c1ccccc1` (centres unmarked) [Compound 129] as the compound, how does the IC50 read?
Answer: 100 to 500 nM

Question: Which IC50 does the source give for `CCCCC1(O)C(N)=Nc2ccc(Cl)cc21` (centres unmarked) [Compound 26] here?
Answer: 100 to 500 nM

Question: With `NC1=Nc2ccc(Cl)cc2C1(O)c1ccccc1SC1CCC1` (centres unmarked) [Compound 187] as the compound, how does the IC50 read?
Answer: 1 to 100 nM

Question: How did the IC50 turn out when `NC1=Nc2ccc(F)cc2C1(O)c1ccccc1` (centres unmarked) [Compound 36] was run?
Answer: 100 to 500 nM

Question: Which IC50 does the source give for `NC1=Nc2ccc(O)cc2C1(O)c1ccccc1` (centres unmarked) [Compound 62] here?
Answer: 5000 to 15000 nM

Question: Which IC50 does the source give for `COc1ccc(Cl)cc1C1(O)C(N)=Nc2ccc(Cl)cc21` (centres unmarked) [Compound 140] here?
Answer: 1 to 100 nM

Question: With `NC1=Nc2ccccc2C1(O)c1cccc2ccccc12` (centres unmarked) [Compound 10] as the compound, how does the IC50 read?
Answer: 1 to 100 nM

Question: Which IC50 does the source give for `C#Cc1ccc2c(c1)C(O)(c1ccc(C3(c4ccccc4)OCCO3)cc1)C(N)=N2` (centres unmarked) [Compound 125] here?
Answer: 100 to 500 nM

Question: With `CC(C)[C@]1(O)C(N)=Nc2ccc(Cl)cc21` [Compound 246] as the compound, how does the IC50 read?
Answer: 100 to 500 nM

Question: For `NC1=Nc2ccc(Cl)cc2C1(O)c1cncc2ccccc12` (centres unmarked) [Compound 107], which IC50 is on record?
Answer: 100 to 500 nM

Question: `NC1=Nc2ccc(Cl)cc2C1(O)c1cc(F)ccc1SC1CC1` (centres unmarked) [Compound 199] was tested. Which IC50 did it give?
Answer: 1 to 100 nM

Question: `CC(C)(C)c1ccc(C2(O)C(N)=Nc3ccccc32)cc1` (centres unmarked) [Compound 6] was tested. Which IC50 did it give?
Answer: 500 to 1000 nM

Question: Which IC50 does the source give for `CC(C)Oc1ccc(F)cc1C1(O)C(N)=Nc2ccc(Cl)cc21` (centres unmarked) [Compound 154] here?
Answer: 1 to 100 nM

Question: Which IC50 does the source give for `CSc1ccc(F)c(C2(O)C(N)=Nc3ccc(Cl)cc32)c1` (centres unmarked) [Compound 204] here?
Answer: 1 to 100 nM

Question: With `CC(C)(C)C1(O)C(N)=Nc2ccc(Cl)cc21` (centres unmarked) [Compound 75] as the compound, how does the IC50 read?
Answer: 100 to 500 nM

Question: How did the IC50 turn out when `Cc1ccc(CC2(O)C(N)=Nc3ccc(Cl)cc32)o1` (centres unmarked) [Compound 173] was run?
Answer: 100 to 500 nM

Question: `Cc1csc2c(CC3(O)C(N)=Nc4ccc(Cl)cc43)cccc12` (centres unmarked) [Compound 206] was tested. Which IC50 did it give?
Answer: 100 to 500 nM

Question: For `CCOc1ccc(Cl)cc1C1(O)C(N)=Nc2ccc(Cl)cc21` (centres unmarked) [Compound 155], which IC50 is on record?
Answer: 1 to 100 nM

Question: `COc1ccccc1C1(O)C(N)=Nc2ccc(C)cc21` (centres unmarked) [Compound 122] was tested. Which IC50 did it give?
Answer: 100 to 500 nM

Question: How did the IC50 turn out when `Cc1ccc(C2(O)C(N)=Nc3ccc(Cl)cc32)cc1` (centres unmarked) [Compound 22] was run?
Answer: 500 to 1000 nM

Question: For `CS(=O)(=O)c1ccccc1C1(O)C(N)=Nc2ccc(Cl)cc21` (centres unmarked) [Compound 120], which IC50 is on record?
Answer: 500 to 1000 nM

Question: Which IC50 does the source give for `COc1ccc(CCc2ccc3c(c2)C(O)(c2ccccc2)C(N)=N3)cc1` (centres unmarked) [Compound 106] here?
Answer: 100 to 500 nM

Question: How did the IC50 turn out when `CC(C)(C)c1ccc(C2(O)C(N)=Nc3ccc(Cl)cc32)cc1` (centres unmarked) [Compound 18] was run?
Answer: 100 to 500 nM

Question: How did the IC50 turn out when `NC1=Nc2ccc(Cl)cc2C1(O)c1cccc2ccsc12` (centres unmarked) [Compound 82] was run?
Answer: 1 to 100 nM

Question: Which IC50 does the source give for `CCOc1ccc(Cl)cc1C1(O)C(N)=Nc2ccc(C)cc21` (centres unmarked) [Compound 244] here?
Answer: 1 to 100 nM

Question: Which IC50 does the source give for `CSc1ccccc1C1(O)C(N)=Nc2ccc(Cl)cc21` (centres unmarked) [Compound 121] here?
Answer: 1 to 100 nM

Question: For `NC1=Nc2ccc(Cl)cc2C1(O)c1cc(SC2CCC2)ccc1F` (centres unmarked) [Compound 185], which IC50 is on record?
Answer: 1 to 100 nM

Question: For `Cc1ccc2c(c1)C(O)(c1cc(Cl)cnc1N(C)C)C(N)=N2` (centres unmarked) [Compound 270], which IC50 is on record?
Answer: 1 to 100 nM
